Source: ChEMBL document CHEMBL1201862, “PubChem BioAssay data set” (2004)
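48-hour exposure; five concentrations; linearly interpolated endpoints. GI50: concentration for 50% inhibition of growth.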 Activity calls are given as the source filed them. No stated cut-off is given here; in the data, active = GI50 up to about 1.1 µM and inactive = higher.

What was measured:
Assay in all cases: DTP human tumour cell line panel, 48 h
NCI-H226 = test system: NCI-H226
Malme-3M = test system: Malme-3M
NCI-H460 = test system: NCI-H460
CCRF-CEM = test system: CCRF-CEM
SF-539 = test system: SF-539
SR = test system: SR
A498 = test system: A498
HCC 2998 = test system: HCC 2998
SF-268 = test system: SF-268
OVCAR-3 = test system: OVCAR-3
HOP-92 = test system: HOP-92
OVCAR-4 = test system: OVCAR-4
TK-10 = test system: TK-10
SNB-75 = test system: SNB-75
UO-31 = test system: UO-31
DU-145 = test system: DU-145
NCI/ADR-RES = test system: NCI/ADR-RES
CAKI-1 = test system: CAKI-1

Measured: GI50

N#Cc1c(-c2ccco2)cc(-c2ccccc2)nc1O
inactive: NCI-H226 > 100 µM | Malme-3M > 100 µM | NCI-H460 > 100 µM | CCRF-CEM > 100 µM | SF-539 > 100 µM | SR > 100 µM | A498 > 100 µM | HCC 2998 > 100 µM | SF-268 > 100 µM | OVCAR-3 > 100 µM | HOP-92 > 100 µM | OVCAR-4 63.4 µM | TK-10 > 100 µM | SNB-75 56.4 µM | UO-31 > 100 µM

COc1cc(C(c2cc3c(cc2O)OCO3)N2CCCC2)cc(OC)c1OC (stereo not drawn)
inactive: DU-145 19.3 µM | NCI-H226 17.4 µM | Malme-3M 6.73 µM | CCRF-CEM 1.79 µM | A498 21.4 µM | NCI/ADR-RES 17.3 µM | HCC 2998 28.5 µM | OVCAR-3 17.7 µM | HOP-92 7.96 µM | CAKI-1 13.6 µM | OVCAR-4 17 µM | TK-10 20.2 µM | SNB-75 16.2 µM | UO-31 14.8 µM

N#CCc1nc(O)c2ccccc2n1
inactive: DU-145 > 100 µM | NCI-H226 > 100 µM | NCI-H460 > 100 µM | SF-539 > 100 µM | NCI/ADR-RES > 100 µM | HCC 2998 > 100 µM | OVCAR-3 69.7 µM | HOP-92 > 100 µM | CAKI-1 > 100 µM | OVCAR-4 > 100 µM | TK-10 > 100 µM | SNB-75 > 100 µM | UO-31 > 100 µM

CN/N=C(\C)C(CN1CCCCC1)C(C1=C(O)c2ccccc2OC1)c1ccccc1 (stereo not drawn)
inactive: NCI-H226 > 100 µM | Malme-3M 91.8 µM | NCI-H460 > 100 µM | CCRF-CEM 69.2 µM | SF-539 > 100 µM | SR 51.3 µM | A498 > 10 µM | HCC 2998 > 100 µM | SF-268 > 100 µM | OVCAR-3 > 100 µM | CAKI-1 > 100 µM | OVCAR-4 > 100 µM | TK-10 > 100 µM | SNB-75 > 100 µM | UO-31 50.4 µM

CC1CCP(=O)(c2ccccc2)c2ccccc21 (stereo not drawn)
inactive: NCI-H226 > 100 µM | Malme-3M > 100 µM | NCI-H460 40.8 µM | CCRF-CEM 37.7 µM | SF-539 56.1 µM | SR 32.4 µM | A498 > 100 µM | HCC 2998 38.8 µM | OVCAR-3 76.2 µM | OVCAR-4 38.5 µM | TK-10 > 100 µM | SNB-75 > 100 µM | UO-31 > 100 µM

COC(=O)C1=C(C(=O)OC)SC(=CC#CC=C2SC(C(=O)OC)=C(C(=O)OC)S2)S1
inactive: NCI-H226 10.6 µM | Malme-3M 15.7 µM | NCI-H460 21 µM | CCRF-CEM > 100 µM | SF-539 2.19 µM | SR > 100 µM | A498 19.4 µM | HCC 2998 10.8 µM | SF-268 > 32.4 µM | OVCAR-3 5.94 µM | HOP-92 16.2 µM | CAKI-1 25.5 µM | OVCAR-4 9.33 µM | TK-10 9.06 µM | SNB-75 7 µM | UO-31 3.51 µM

Cc1cc2c(cc1Br)C1(C)CCC(C)C1(C)O2 (stereo not drawn)
inactive: NCI-H226 19.8 µM | Malme-3M 16.9 µM | NCI-H460 23.7 µM | CCRF-CEM 22.1 µM | SF-539 > 100 µM | SR 13 µM | A498 34.6 µM | HCC 2998 43 µM | SF-268 34 µM | OVCAR-3 21.7 µM | HOP-92 20.9 µM | CAKI-1 56 µM | OVCAR-4 39.8 µM | TK-10 > 100 µM | SNB-75 36.6 µM | UO-31 32.4 µM

O=C1c2ccoc2C(=O)c2oc(=O)ccc21
inactive: NCI-H226 > 42.6 µM | Malme-3M 3.16 µM | NCI-H460 18.7 µM | CCRF-CEM 5.57 µM | SF-539 3.45 µM | SR 1.43 µM | A498 > 59.3 µM | HCC 2998 > 45.3 µM | SF-268 9.14 µM | OVCAR-3 3.36 µM | HOP-92 21.6 µM | CAKI-1 > 45 µM | OVCAR-4 5.13 µM | TK-10 > 45.1 µM | SNB-75 6.41 µM | UO-31 7.43 µM

N/N=C1\C(=O)N(CCc2ccccc2)C(=O)C1C(=O)NCCc1ccccc1 (stereo not drawn)
inactive: NCI-H226 > 100 µM | Malme-3M > 100 µM | CCRF-CEM > 100 µM | SF-539 > 100 µM | SR > 100 µM | SF-268 > 100 µM | OVCAR-3 > 100 µM | HOP-92 > 100 µM | CAKI-1 > 100 µM | TK-10 > 100 µM | SNB-75 > 100 µM | UO-31 > 100 µM

CC(C)(Oc1ccc(/C=C/C(=O)c2ccc(Cl)cc2)cc1)C(=O)Nc1c(Cl)cccc1Cl
inactive: NCI-H226 25.5 µM | Malme-3M 19.7 µM | NCI-H460 31.6 µM | SF-539 14.6 µM | SR > 100 µM | A498 17.1 µM | HCC 2998 25.4 µM | SF-268 28.5 µM | OVCAR-3 19.5 µM | HOP-92 15.7 µM | CAKI-1 23.7 µM | OVCAR-4 23.4 µM | TK-10 59.4 µM | SNB-75 29.4 µM | UO-31 24.4 µM

CN1C(=O)n2c(nc3ccccc32)C(N=[N+]=[N-])(N=[N+]=[N-])C1=O (stereo not drawn)
inactive: NCI-H226 > 100 µM | Malme-3M > 100 µM | NCI-H460 > 100 µM | CCRF-CEM 68.9 µM | SF-539 > 100 µM | A498 > 100 µM | HCC 2998 > 100 µM | SF-268 > 100 µM | OVCAR-3 > 100 µM | HOP-92 86.5 µM | CAKI-1 35.2 µM | OVCAR-4 > 100 µM | TK-10 > 100 µM | SNB-75 57.3 µM | UO-31 > 100 µM

CC1(C)c2ccccc2N2O[C@@H]3C(=O)N(c4ccccc4)C(=O)[C@@H]3C21c1ccccc1 (stereo partly drawn)
inactive: NCI-H226 > 100 µM | Malme-3M > 100 µM | CCRF-CEM 52.8 µM | SF-539 > 100 µM | HCC 2998 > 100 µM | SF-268 > 100 µM | OVCAR-3 > 100 µM | CAKI-1 > 100 µM | TK-10 > 100 µM | SNB-75 84.1 µM | UO-31 > 100 µM

N#C/N=C(/NCCc1c[nH]c2ccccc12)Oc1ccccc1
inactive: NCI-H226 77.3 µM | NCI-H460 37.1 µM | CCRF-CEM 21.9 µM | SF-539 97.9 µM | SR 35 µM | HCC 2998 44 µM | SF-268 > 100 µM | OVCAR-3 > 100 µM | OVCAR-4 73.3 µM | TK-10 84.5 µM | SNB-75 43 µM | UO-31 23.4 µM

COC(=O)c1cc(O)ccc1NC(=O)c1ccc(O)cc1
inactive: NCI-H226 > 100 µM | Malme-3M > 100 µM | NCI-H460 > 100 µM | CCRF-CEM > 100 µM | SF-539 > 100 µM | SR > 100 µM | HCC 2998 > 100 µM | SF-268 > 100 µM | OVCAR-3 > 100 µM | HOP-92 87.7 µM | CAKI-1 79.4 µM | OVCAR-4 > 100 µM | TK-10 82.2 µM | SNB-75 > 100 µM | UO-31 > 100 µM

COC(=O)N1CCc2c(nc(N(C)CCO)[nH]c2=O)C1
inactive: NCI-H226 > 100 µM | Malme-3M > 100 µM | NCI-H460 > 100 µM | CCRF-CEM > 100 µM | SF-539 > 100 µM | SR > 100 µM | A498 > 100 µM | HCC 2998 > 100 µM | SF-268 > 100 µM | OVCAR-3 > 100 µM | HOP-92 > 100 µM | CAKI-1 > 100 µM | TK-10 > 100 µM | SNB-75 > 100 µM | UO-31 > 100 µM

COc1ccc2c3c(coc13)C(CCC(=O)O)CC2 (stereo not drawn)
inactive: NCI-H460 > 100 µM | SF-539 > 100 µM | A498 > 100 µM | HCC 2998 > 100 µM | OVCAR-3 > 100 µM | CAKI-1 38.7 µM | OVCAR-4 > 100 µM | TK-10 > 100 µM | SNB-75 56.6 µM

CCOC1c2nc3ccccc3nc2-c2ccccc2N1C(C)=O (stereo not drawn)
inactive: NCI-H460 > 100 µM | CCRF-CEM > 100 µM | SF-539 > 100 µM | SR > 100 µM | A498 > 100 µM | HCC 2998 > 100 µM | OVCAR-3 > 100 µM | HOP-92 29.2 µM | CAKI-1 > 100 µM | OVCAR-4 74.6 µM | SNB-75 46.2 µM | UO-31 > 100 µM

CC(C)c1cccc(C(C)C)c1NC(=S)NN=C1C=C(C(C)(C)C)C(=O)C(C(C)(C)C)=C1
inactive: NCI-H226 10 µM | Malme-3M 27.3 µM | NCI-H460 25.6 µM | CCRF-CEM 22.7 µM | SF-539 19.9 µM | SR 35.3 µM | A498 17.9 µM | HCC 2998 23.5 µM | SF-268 34.3 µM | OVCAR-3 22.5 µM | OVCAR-4 17.3 µM | TK-10 30.4 µM | SNB-75 21.2 µM | UO-31 29.6 µM

COc1cc2c(cc1OC)-c1cc3cc(OC)c(OC)cc3n1CC2
inactive: NCI-H226 33.7 µM | Malme-3M 23.8 µM | NCI-H460 36 µM | CCRF-CEM > 100 µM | SR > 100 µM | A498 14.4 µM | HCC 2998 61 µM | SF-268 81.5 µM | OVCAR-3 > 100 µM | HOP-92 60.3 µM | CAKI-1 55.7 µM | OVCAR-4 22.7 µM | TK-10 19.9 µM | SNB-75 18.5 µM | UO-31 > 100 µM
